Measured values published in patent US20120277246A1, “Use of N-Phenyl-2-pyrimidineamine Derivatives Against Mast Cell-based Diseases Like Allergic Disorders” (priority 2001, published 2012).
Each block holds one molecule with its values, some of them ahead of it.

How the values were obtained:
[1] = system: cultured mast cells grown under stimulation with SCF; assay: Detection of cellular apoptosis (PI flow cytometry, DNA gel electrophoresis)
CD34+ cord blood cells = assay: Cell production by CD34+ cells under stimulation with SCF (suspension culture); type: cell-based, human; settings: STI571B at 10^-6 M
Experimental: (§1) More than 90% of the isolated cells were CD34-positive according to the flow cytometric analysis.
(§2) Serum-deprived liquid cultures are carried out in 24-well culture plates (#3047; Becton Dickinson). Twenty thousand CD34^+ cells are cultured in each well containing 2 mL of […]-medium supplemented with 1% BSA, 300 μg/mL fully iron-saturated human transferrin (approximately 98% pure, Sigma), 16 μg/mL soybean lecithin (Sigma), 9.6 μg/mL cholesterol (Nakalai Chemicals Ltd., Japan) and 20 ng/mL of SCF, 10 ng/mL of GM-CSF, 2 U/mL of EPO, 10 ng/mL of TPO, different concentrations of a COMPOUND OF THE INVENTION, alone or in combination. In order to examine the effects of a COMPOUND OF THE INVENTION on the SCF-dependent development of mast cells, 10-week cultured cells grown with 20 ng/mL of SCF from CD34^+ cord blood cells are used as target cells. Five to ten×10^4 10-week cultured cells are incubated for 2 weeks in 24-well culture plates containing 20 ng/mL of SCF with or without various concentrations of a COMPOUND OF THE INVENTION. The plates are incubated at 37° C. in a humidified atmosphere flushed with a mixture of 5% CO2, 5% O2 and 90% N2. When the culture continued until 4 weeks, half of the culture medium is replaced every 2 weeks with fresh medium containing the factor(s). The number of viable cells is determined by a trypan-blue exclusion test using a hemocytometer.

[2] = system: cultured human mast cells generated from CD34+ cord blood cells; assay: SCF-dependent growth of cultured human mast cells (suspension culture, trypan-blue viable cell count); type: cell-based
Experimental: as §1, §2

[3] = system: cutaneous mast cell tumors; assay: Prospective case series of pet dogs with measurable cutaneous mast cell tumors; type: in vivo; settings: 25 mg/kg PO QD x 60 days of SALT I, prospective example
Experimental: The study patients are pet dogs with measurable and histologically-confirmed mast cell tumors. Cases are limited to those with measurable lesions amenable to biopsy.
Eligibility criteria are: • Histologically-confirmed measurable cutaneous mast cell tumors • Cases will require serial biopsy with […] Keyes punch before and during therapy • Histological grade (II-intermediate or III-poorly differentiated) • Performance status 0 or I (Modified Karnofsky—Table 3) • Informed owner consent
Exclusion criteria are: • Concurrent cytotoxic chemotherapy • Prednisone and non-steroidal anti-inflammatory drugs may not be initiated within 30 days of the study; if prednisone or non-steroidal anti-inflammatory drugs have been administered for greater than 30 days they may be continued • Abnormal serum bile acid test (liver function)
Pretreatment evaluation of all cases include physical examination, complete blood count, buffy coat, serum biochemistry, urinalysis, serum bile acids (fasting and post-prandial), documentation of regional lymph node size, abdominal radiographs, and abdominal ultrasound. […]
The efficacy of COMPOUND I is assessed against measurable cutaneous mast cell tumors, using clinical endpoints. […]
Clinical endpoints include response rate of measurable tumors, objective response against measurable tumor, and time to progression of measurable tumor. All adverse side effects will be recorded.

[4] = system: C2 canine mastocytoma cells; assay: Proliferation of C2 cells, XTT-based assay; type: cell-based; settings: C2 cells (data not shown)
[5] = system: C2 canine mastocytoma cells; assay: Proliferation of C2 cells, XTT-based assay; type: cell-based; settings: for % (percent of maximal proliferation, cells only) / Averages (XTT-based assay reading): 72 hours; for Averages (XTT-based assay reading): triplicate
Experimental: (§3) Cell lines: BR and C2 canine mastocytoma cells lines were obtained from Dr. George Caughey (University of California at San Francisco, San Francisco, Calif.). Both cell lines were maintained in DMEM supplemented with 2% bovine calf, 1 mM L-glutamine, 12.5 mM HEPES (pH 7.5), 0.25 mg/ml Histidine, 1% Penicillin-Streptomycin and 1% fungizone. The BR and C2 cells were derived from canine mast cell tumors and were originally established in long-term culture after initial passaging in immunodeficient mice (DeVinney R et al., Am J Respir Cell Mol Biol 1990; 3(5):413-420; Lazarus S C et al., Am J Physiol 1986; 251(6 Pt 1):C935-C944). The BR cell line has a point mutation (T1752C) resulting in a Leucine to Proline substitution at amino acid 575 (juxtamembrane domain). The C2 cell line has an internal tandem duplication (ITD) of the KIT juxtamembrane region. The translation of this ITD results in reduplication of amino acid residues at the 3′ end of exon 11 (London et al., Exp. Hematol., Vol. 27, No. 4, pp. 689-697 (1999); Ma et al., J. Invest. Dermatol., Vol. 112, No. 2, pp. 165-170 (1999)).
(§4) Proliferation assays: Cells were added to 96-well plates at a density of 40,000 cells/well in normal culture media and varying concentrations of SALT I. Proliferation was measured at 48-72 hours using an XTT-based assay (Roche Molecular Biochemicals; Indianapolis, Ind.) (Heinrich et al., Blood, Vol. 96, No. 3, pp. 925-932 (2000))
(§5) Representative results from one of six independent experiments are shown.

[6] = target: T1, constitutively activated mutant canine KIT (BR cells, Leucine to Proline substitution at amino acid 575) (Canis lupus familiaris, UniProt O97799, L579P); assay: KIT autophosphorylation in BR cells (anti-P-Tyr Western immunoblot); type: cell-based
T1 construct: Lysates prepared from BR or C2 cells were probed with an anti-P-Tyr antibody; endogenous in cells; host or cells: BR canine mastocytoma cell line
Source text: (§6) Antibodies: A polyclonal rabbit anti-KIT antibody (c-kit Ab-1) was used at a dilution of 1:500 (c-kit Ab-1; Oncogene, Cambridge, Mass.). An anti-phosphotyrosine antibody (PY20) was used at a dilution of 1:1000 (PY20 Transduction Laboratories; Lexington, Ky.). Peroxidase conjugated goat anti-mouse antibody was used at a dilution of 1:5000 and goat anti-rabbit antibody at a dilution of 1:10,000 (Pierce; Rockford, Ill.).
as §3, with “region.” for “region. The translation of this ITD results in reduplication of amino acid residues at the 3′ end of exon 11 (London et al., Exp. Hematol., Vol. 27, No. 4, pp. 689-697 (1999); Ma et al., J. Invest. Dermatol., Vol. 112, No. 2, pp. 165-170 (1999)).”
(§7) Protein lysates: BR and C2 cells were washed×2 in PBS and then quiesced in Optimem (Gibco-BRL) at 37° C. for approximately 18 hours.
(§8) The KIT mutations in these cell lines are both located in the juxtamembrane domain and are homologous to mutations seen in human Gastrointestinal Stromal Tumors (GISTS) (Lux et al., Am. J. Pathol., Vol. 156, No. 3, pp. 791-795 (2000); Rubin et al., Cancer Res., Vol. 61, No. 22, pp. 8118-8121 (2001)). Lysates prepared from BR or C2 cells were probed with an anti-P-Tyr antibody and KIT receptor activation was assessed by measuring autophosphorylation.

[7] = system: constitutively activated mutant canine KIT (C2 cells, internal tandem duplication of the juxtamembrane region); assay: KIT autophosphorylation in C2 cells (anti-P-Tyr Western immunoblot); type: cell-based
Source text: as §6
as §3, with “region.” for “region. The translation of this ITD results in reduplication of amino acid residues at the 3′ end of exon 11 (London et al., Exp. Hematol., Vol. 27, No. 4, pp. 689-697 (1999); Ma et al., J. Invest. Dermatol., Vol. 112, No. 2, pp. 165-170 (1999)).”
as §7, §8

[8] = system: BR canine mastocytoma cells; assay: Proliferation of BR cells, XTT-based assay; type: cell-based; settings: for % (percent of maximal proliferation, cells only) / Averages (XTT-based assay reading): 72 hours; for Averages (XTT-based assay reading): triplicate
Experimental: as §3, §4, §5

[9] = membrane reprobed with anti-c-kit antibody

T1 sequence (O97799 28-979 L579P): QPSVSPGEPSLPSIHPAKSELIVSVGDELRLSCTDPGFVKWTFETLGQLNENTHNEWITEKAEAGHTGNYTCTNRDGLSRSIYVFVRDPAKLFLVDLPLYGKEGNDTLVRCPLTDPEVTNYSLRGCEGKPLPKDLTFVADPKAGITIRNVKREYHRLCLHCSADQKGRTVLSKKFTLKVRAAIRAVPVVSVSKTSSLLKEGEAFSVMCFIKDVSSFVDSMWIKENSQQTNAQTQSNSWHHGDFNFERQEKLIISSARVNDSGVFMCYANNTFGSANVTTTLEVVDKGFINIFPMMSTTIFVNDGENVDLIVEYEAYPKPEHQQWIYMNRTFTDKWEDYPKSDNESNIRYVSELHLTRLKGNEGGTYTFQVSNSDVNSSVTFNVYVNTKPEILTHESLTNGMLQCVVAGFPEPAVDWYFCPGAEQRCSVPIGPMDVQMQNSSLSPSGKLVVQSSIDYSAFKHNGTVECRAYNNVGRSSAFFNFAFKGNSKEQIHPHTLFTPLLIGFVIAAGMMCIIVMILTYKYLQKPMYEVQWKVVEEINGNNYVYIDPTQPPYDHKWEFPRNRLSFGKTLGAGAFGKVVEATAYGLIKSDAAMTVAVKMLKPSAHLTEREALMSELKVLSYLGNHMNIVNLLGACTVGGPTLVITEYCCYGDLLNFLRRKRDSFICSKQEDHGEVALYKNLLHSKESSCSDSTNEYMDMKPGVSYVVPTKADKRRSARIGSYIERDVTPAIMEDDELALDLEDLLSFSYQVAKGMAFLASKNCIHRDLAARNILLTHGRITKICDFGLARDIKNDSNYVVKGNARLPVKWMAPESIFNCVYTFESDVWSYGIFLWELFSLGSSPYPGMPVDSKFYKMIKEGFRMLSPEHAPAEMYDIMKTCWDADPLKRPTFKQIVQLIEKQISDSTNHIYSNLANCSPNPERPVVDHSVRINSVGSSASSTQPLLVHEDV

Compound: Cc1ccc(NC(=O)c2ccc(CN3CCN(C)CC3)cc2)cc1Nc1nccc(-c2cccnc2)n1 [STI571B, N-{5-[4-(4-methyl-piperazino-methyl)-benzoylamido]-2-methyl-phenyl}-4-(3-pyridyl)-2-pyrimidine-amine monomesylate]
percentage of sub-diploid nuclei ([1]; SCF plus STI571B, over culture period): increases with the culture period | DNA laddering on gel electrophoresis ([1]; cells exposed to SCF plus STI571B): DNA laddering | programmed death of cultured mast cells ([1]; grown under stimulation with SCF): induces a programmed death | cell production by CD34+ cells under stimulation with SCF (CD34+ cord blood cells): markedly depresses | number of viable cells ([2]; SCF plus STI571B, after day 2): declines in a time-dependent fashion | number of viable cells ([2]; SCF plus STI571B, day 2): unchanged | total cell number ([2]; SCF plus STI571B, day 14): negligible level | progeny generation in culture with SCF ([2]; STI571B at 10^-6 M or higher, 10-week cultured mast cells, SCF): almost completely inhibits

inhibition of KIT autophosphorylation ([6]; 0.1 μM): Near complete inhibition | inhibition of KIT autophosphorylation ([6]; 1.0 μM): complete inhibition | inhibition of KIT autophosphorylation ([6]; 10 μM): complete inhibition | autophosphorylation of c-kit ([6]; 0.001-0.01 μM): Limited autophosphorylation | expression of c-kit protein [6, 9]: no change
Compound: Cc1ccc(NC(=O)c2ccc(CN3CCN(C)CC3)cc2)cc1Nc1nccc(-c2cccnc2)n1 [COMPOUND I]
Objective Tumors Responses [3]: observed | morphologic observations of inhibitor treated cells [4]: changes consistent with apoptosis | % (percent of maximal proliferation, cells only) ([5]; 1 μM): 3% | Averages (XTT-based assay reading) ([5]; 1 μM): 0.037 | % (percent of maximal proliferation, cells only) ([5]; 5 μM): 3% | Averages (XTT-based assay reading) ([5]; 5 μM): 0.032 | inhibition of proliferation ([5]; 0.001-0.01 μM, 48-72 hours): Partial inhibition | decrease of proliferation compared to cells treated with media only ([5]; 0.1-10 μM, 48-72 hours): 90-95% | % (percent of maximal proliferation, cells only) ([5]; .001 μM): 86% | Averages (XTT-based assay reading) ([5]; .001 μM): 1.065 | % (percent of maximal proliferation, cells only) ([5]; .01 μM): 61% | Averages (XTT-based assay reading) ([5]; .01 μM): 0.754 | % (percent of maximal proliferation, cells only) ([5]; .1 μM): 2% | Averages (XTT-based assay reading) ([5]; .1 μM): 0.028 | inhibition of KIT autophosphorylation ([7]; 0.1 μM): Near complete inhibition | inhibition of KIT autophosphorylation ([7]; 1.0 μM): complete inhibition | inhibition of KIT autophosphorylation ([7]; 10 μM): complete inhibition | autophosphorylation of c-kit ([7]; 0.001-0.01 μM): Limited autophosphorylation | expression of c-kit protein [7, 9]: no change | morphologic observations of inhibitor treated cells ([8]; BR cells (data not shown)): changes consistent with apoptosis | % (percent of maximal proliferation, cells only) ([8]; BR cells, 1 μM): 11% | Averages (XTT-based assay reading) ([8]; BR cells, 1 μM): 0.105 | % (percent of maximal proliferation, cells only) ([8]; BR cells, 5 μM): 9% | Averages (XTT-based assay reading) ([8]; BR cells, 5 μM): 0.083 | inhibition of proliferation ([8]; BR cells, 0.001-0.01 μM, 48-72 hours): Partial inhibition | decrease of proliferation compared to cells treated with media only ([8]; BR cells, 0.1-10 μM, 48-72 hours): 90-95% | % (percent of maximal proliferation, cells only) ([8]; BR cells, .001 μM): 84% | Averages (XTT-based assay reading) ([8]; BR cells, .001 μM): 0.781 | % (percent of maximal proliferation, cells only) ([8]; BR cells, .01 μM): 52% | Averages (XTT-based assay reading) ([8]; BR cells, .01 μM): 0.479 | % (percent of maximal proliferation, cells only) ([8]; BR cells, .1 μM): 11% | Averages (XTT-based assay reading) ([8]; BR cells, .1 μM): 0.105
